Structures can show the parent of a compound that is named as a salt.
system: Acinetobacter baumannii ATCC17978; test: Antimicrobial susceptibility testing: 90% growth inhibitory concentration (IC90) determination, Iso-Sensitest broth, OD 600 nm; type: cell-based; settings: 90% growth inhibitory concentration, Acinetobacter baumannii ATCC17978, Iso-Sensitest broth, OD 600 nm over 16 h; read-out: ATCC 17978 IC90
Method: Antimicrobial Susceptibility Testing:
90% Growth Inhibitory Concentration (IC90) Determination
The in vitro antimicrobial activity of the compounds was determined according to the following procedure:
The assay used a 10-points Iso-Sensitest broth medium to measure quantitatively the in vitro activity of the compounds against Acinetobacter baumannii ATCC17978 and Acinetobacter baumannii ATCC17961.
Stock compounds in DMSO were serially twofold diluted (e.g. range from 50 to 0.097 μM final concentration) in 384 wells microtiter plates and inoculated with 49 μl the bacterial suspension in Iso-Sensitest medium to have a final cell concentration of ˜5×10^(5) CFU/ml in a final volume/well of 50 ul/well. Microtiter plates were incubated at 35±2° C.
Bacterial cell growth was determined with the measurement of optical density at λ=600 nm each 20 minutes over a time course of 16 h. Growth inhibition was calculated during the logarithmic growth of the bacterial cells with determination of the concentration inhibiting 50% (IC50) and 90% (IC90) of the growth.
Table 1 provides the 90% growth inhibitory concentrations (IC90) in micromoles per liter of the compounds of present invention obtained against the strain Acinetobacter baumannii ATCC17978 and Acinetobacter baumannii ATCC17961.

IC90 [nM]	SMILES
64	CCc1cc(Nc2nccn3c(-c4ccc(OCC#N)c(F)c4F)cnc23)ccc1C(=O)NCCOCCN [Example 20, N-[2-(2-aminoethoxy)ethyl]-4-[[3-[4-(cyanomethoxy)-2,3-difluoro-phenyl]imidazo[1,2-a]pyrazin-8-yl]amino]-2-ethyl-benzamide;2,2,2-trifluoroacetic acid]

same assay, conditions: Acinetobacter baumannii, ATCC17978, 16 h, 90% growth inhibitory concentration, Acinetobacter baumannii ATCC17978, Iso-Sensitest broth, OD 600 nm over 16 h; read-out: ATCC 17978 IC90

IC90 [nM]	SMILES
600	COc1ccc(-c2cnc3c(Nc4ccc(C(=O)NCCCOCC(=O)N5CCNCC5)c(C)c4)nccn23)cc1F [Example 118, 4-[[3-(3-fluoro-4-methoxyphenyl)imidazo[1,2-a]pyrazin-8-yl]amino]-2-methyl-N-[3-(2-oxo-2-piperazin-1-ylethoxy)propyl] benzamide; hydrochloride]
480	COc1ccc(-c2cnc3c(Nc4ccc(C(=O)NCCOCC(=O)N5CCNCC5)c(C)c4)nccn23)cc1F [Example 105, 4-[[3-(3-fluoro-4-methoxyphenyl)imidazo[1,2-a]pyrazin-8-yl]amino]-2-methyl-N-[2-(2-oxo-2-piperazin-1-ylethoxy)ethyl] benzamide]
440	Cc1cc(Nc2nccn3c(-c4ccc(Cl)cc4)cnc23)ccc1C(=O)NCCOCCN [Example 99, N-[2-(2-aminoethoxy)ethyl]-4-[[3-(4-chlorophenyl)imidazo[1,2-a]pyrazin-8-yl]amino]-2-methylbenzamide; hydrochloride]
590	CCc1cc(Nc2nccn3c(-c4ccc(OC)c(F)c4F)cnc23)ccc1C(=O)NCCCNCCCN [Example 184, N-[3-(3-aminopropyl-amino)propyl]-4-[[3-(2,3-difluoro-4-methoxyphenyl)imidazo[1,2-a]pyrazin-8-yl]amino]-2-ethyl-benzamide;2,2,2-trifluoroacetic acid]
530	COc1ccc(-c2cnc3c(Nc4ccc(C(=O)N(C)CCOCCN5CCS(=O)(=O)CC5)c(C)c4)nccn23)cc1F [Example 110, N-[2-[2-(1,1-dioxo-1,4-thiazinan-4-yl)ethoxy]ethyl]-4-[[3-(3-fluoro-4-methoxyphenyl)imidazo[1,2-a]pyrazin-8-yl]amino]-N,2-dimethyl-benzamide]
640	COc1ccc(-c2cnc3c(Nc4ccc(C(=O)NCCCOCC(=O)N5CCOC(CN)C5)c(C)c4)nccn23)cc1F (stereo not drawn) [Example 124, N-[3-[2-[2-(aminomethyl)morpholin-4-yl]-2-oxoethoxy]propyl]-4-[[3-(3-fluoro-4-methoxyphenyl)imidazo[1,2-a]pyrazin-8-yl]amino]-2-methylbenzamide; hydrochloride]
920	CCc1cc(Nc2nccn3c(-c4ccc(OC)c(F)c4F)cnc23)ccc1C(=O)NCCNCC(=O)O [Example 48, (2-(4-((3-(2,3-difluoro-4-methoxyphenyl)imidazo[1,2-a]pyrazin-8-yl)amino)-2-ethylbenzamido)ethyl)glycine compound with 2,2,2-trifluoroacetic acid]
1000	CCCCC(=O)NCCOCCNC(=O)c1ccc(Nc2nccn3c(-c4ccc(OC)cc4)cnc23)cc1C [Example 141, 4-[[3-(4-methoxyphenyl)imidazo[1,2-a]pyrazin-8-yl]amino]-2-methyl-N-[2-[2-(pentanoylamino)ethoxy]ethyl] benzamide]
1200	Cc1cc(Nc2nccn3c(-c4ccc(OC(F)F)cc4)cnc23)ccc1C(=O)NCCOCCNC(=O)CCC(=O)O [Example 78, 4-[2-[2-[[4-[[3-[4-(difluoromethoxy)phenyl]imidazo [1,2-a]pyrazin-8-yl]amino]-2-methylbenzoyl]amino]ethoxy]ethylamino]-4-oxobutanoic acid]
150	COc1ccc(-c2cnc3c(Nc4ccc(C(=O)NCCSCCN)c(C)c4)nccn23)cc1F [Example 25, N-(2-((2-aminoethyl)thio)ethyl)-4-((3-(3-fluoro-4-methoxyphenyl)imidazo[1,2-a]pyrazin-8-yl)amino)-2-methylbenzamide]
580	COc1ccc(-c2cnc3c(Nc4ccc(C(=O)NCCOCCN5CCNCC5)c(C)c4)nccn23)cc1F [Example 113, 4-[[3-(3-fluoro-4-methoxyphenyl)imidazo[1,2-a]pyrazin-8-yl]amino]-2-methyl-N-[2-(2-piperazin-1-ylethoxy)ethyl] benzamide; hydrochloride]
2400	COC(=O)COCCOCCNC(=O)c1ccc(Nc2nccn3c(-c4ccc(OC(F)F)cc4)cnc23)cc1C [Example 156, methyl 2-[2-[2-[[4-[[3-[4-(difluoro-methoxy)phenyl]imidazo [1,2-a]pyrazin-8-yl]amino]-2-methylbenzoyl]amino]ethoxy]ethoxy]acetate]
370	Cc1cc(Nc2nccn3c(-c4ccc(OC(F)F)c(F)c4)cnc23)ccc1C(=O)NCCOCCN [Example 97, N-[2-(2-aminoethoxy)ethyl]-4-[[3-[4-(difluoro-methoxy)-3-fluorophenyl]imidazo[1,2-a]pyrazin-8-yl]amino]-2-methylbenzamide; hydrochloride]

same assay, conditions: Acinetobacter baumannii, ATCC17978, 16 h, read-out: ATCC 17978 IC90

SMILES	IC90 [nM]
Cc1cc(Nc2nccn3c(-c4ccc(F)cc4F)cnc23)ccc1C(=O)NCCOCCN [Example 35, N-(2-(2-aminoethoxy)ethyl)-4-((3-(2,4-difluorophenyl)imidazo[1,2-a]pyrazin-8-yl)amino)-2-methylbenzamide hydrochloride]	770
COc1ccc(-c2cnc3c(Nc4ccc(C(=O)NCCOCCN)c(C)c4)nccn23)cc1F [Example 36, N-(2-(2-aminoethoxy)ethyl)-4-((3-(3-fluoro-4-methoxyphenyl)imidazo[1,2-a]pyrazin-8-yl)amino)-2-methylbenzamide hydrochloride]	160
COc1ccc(-c2cnc3c(Nc4ccc(C(=O)N(C)CCOCCN)c(C)c4)nccn23)cc1 [Example 24, N-(2-(2-aminoethoxy)ethyl)-4-((3-(4-methoxyphenyl)imidazo[1,2-a]pyrazin-8-yl)amino)-N,2-dimethylbenzamide hydrochloride]	430
CCc1cc(Nc2nccn3c(-c4ccc(OC)c(F)c4F)cnc23)ccc1C(=O)NCCOCCOCCN [Example 65, N-(2-(2-(2-Aminoethoxy)ethoxy)ethyl)-4-((3-(2,3-difluoro-4-methoxyphenyl)imidazo[1,2-a]pyrazin-8-yl)amino)-2-ethylbenzamide dihydrochloride]	72
Cc1cc(Nc2nccn3c(-c4ccc(Cl)c(F)c4)cnc23)ccc1C(=O)NCCOCCN [Example 32, N-(2-(2-aminoethoxy)ethyl)-4-((3-(4-chloro-3-fluorophenyl)imidazo[1,2-a]pyrazin-8-yl)amino)-2-methylbenzamide hydrochloride]	300
Cc1cc(Nc2nccn3c(-c4ccc(F)c(F)c4F)cnc23)ccc1C(=O)NCCOCCN [Example 37, N-(2-(2-aminoethoxy)ethyl)-2-methyl-4-((3-(2,3,4-trifluorophenyl)imidazo[1,2-a]pyrazin-8-yl)amino)benzamide hydrochloride]	370
COc1ccc(-c2cnc3c(Nc4ccc(C(=O)NCCOCCN)c(Cl)c4)nccn23)cc1F [Example 4, N-(2-(2-aminoethoxy)ethyl)-2-chloro-4-((3-(3-fluoro-4-methoxyphenyl)imidazo[1,2-a]pyrazin-8-yl)amino)benzamide hydrochloride]	98

From US20230017532A1 (Hoffmann-La Roche Inc., priority 2018, published 2023)
